The source of these data is patent publication US11325938B2, “CD73 inhibitors” (ORIC Pharmaceuticals, Inc., priority 2018, dated 2022).

Chain of CD73 (P21589 27-574): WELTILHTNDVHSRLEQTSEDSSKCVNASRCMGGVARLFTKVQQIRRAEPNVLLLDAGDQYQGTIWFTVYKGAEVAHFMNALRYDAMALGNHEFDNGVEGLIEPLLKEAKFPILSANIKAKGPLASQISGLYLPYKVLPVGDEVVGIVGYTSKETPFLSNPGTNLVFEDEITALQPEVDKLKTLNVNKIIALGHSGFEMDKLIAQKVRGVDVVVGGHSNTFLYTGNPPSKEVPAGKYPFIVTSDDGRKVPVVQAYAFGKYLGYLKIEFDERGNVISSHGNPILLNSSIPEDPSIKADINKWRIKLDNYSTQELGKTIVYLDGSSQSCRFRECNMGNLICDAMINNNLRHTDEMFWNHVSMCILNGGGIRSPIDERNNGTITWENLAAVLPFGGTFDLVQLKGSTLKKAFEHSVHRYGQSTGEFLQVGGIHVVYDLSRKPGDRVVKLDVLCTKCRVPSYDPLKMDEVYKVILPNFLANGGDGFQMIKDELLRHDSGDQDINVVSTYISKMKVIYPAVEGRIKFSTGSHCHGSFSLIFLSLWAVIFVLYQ

The target in this experiment is CD73 (Homo sapiens (Human), UniProt P21589). The experiment is described as follows: Biochemical assay: inhibition of CD73 activity (AMP hydrolysis, Malachite Green readout). Particulars: CD73 0.3208 nM, AMP 15 μM, 25 mM Tris-HCl pH 7.4, RT, absorbance 620 nm. Summed up:
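Phosphate from AMP hydrolysis (15 μM AMP, 10 min, RT) was detected by Malachite Green absorbance to give IC50s. Enzyme at 320 pM was first exposed 15 min to compounds, dosed from 100 μM in ½-log steps, in Tris pH 7.4 buffer with MgCl2, Brij-35 and BSA.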
`O=P(O)(O)[C@@](CO)(Cc1nn[nH]n1)OC[C@H]1O[C@@H](n2ncc3c(NC4CCCC4)nc(CO)nc32)[C@H](O)[C@@H]1O` (racemic) [Example 218, rac-((R)-2-(((2R,3S,4R,5R)-5-(4-(cyclopentylamino)-6-(hydroxymethyl)-1H-pyrazolo[3,4-d]pyrimidin-1-yl)-3,4-dihydroxytetrahydrofuran-2-yl)methoxy)-1-hydroxy-3-(2H-tetrazol-5-yl)propan-2-yl)phosphonic acid]: the half-inhibitory concentration (IC50) is ≤ 100 nM.
Consider `O=P(O)(O)C(CO)(Cc1nc[nH]n1)OC[C@H]1O[C@@H](n2ncc3c(NC4CCCC4)nc(Cl)nc32)[C@H](O)[C@@H]1O` (mixture of isomers) [Example 219, rac-(2-(((2R,3S,4R,5R)-5-(6-chloro-4-(cyclopentylamino)-1H-pyrazolo[3,4-d]pyrimidin-1-yl)-3,4-dihydroxytetrahydrofuran-2-yl)methoxy)-1-hydroxy-3-(1H-1,2,4-triazol-3-yl)propan-2-yl)phosphonic acid], for which the IC50 is ≤ 100 nM.
Take `C[C@@H](Nc1nc(Cl)nc2c1cnn2[C@@H]1O[C@H](COC(CO)(CO)P(=O)(O)O)[C@@H](O)[C@H]1O)c1ccc(F)cc1` (racemic) [Example 222, rac-(2-(((2R,3S,4R,5R)-5-(6-chloro-4-(((R)-1-(4-fluorophenyl)ethyl)amino)-1H-pyrazolo[3,4-d]pyrimidin-1-yl)-3,4-dihydroxytetrahydrofuran-2-yl)methoxy)-1,3-dihydroxypropan-2-yl)phosphonic acid]: the 50% inhibitory concentration (IC50) was ≤ 100 nM.
Take `CC(C)(O)C#Cc1nc(NC2CCCC2)c2cnn([C@@H]3O[C@H](COC(CO)(CO)P(=O)(O)O)[C@@H](O)[C@H]3O)c2n1` (racemic) [Example 224, rac-(2-(((2R,3S,4R,5R)-5-(4-(cyclopentylamino)-6-(3-hydroxy-3-methylbut-1-yn-1-yl)-1H-pyrazolo[3,4-d]pyrimidin-1-yl)-3,4-dihydroxytetrahydrofuran-2-yl)methoxy)-1,3-dihydroxypropan-2-yl)phosphonic acid]: the IC50 is ≤ 100 nM.
To `O=C(O)c1ccccc1COCC(CO)(OC[C@H]1O[C@@H](n2ncc3c(NC4CCCC4)nc(Cl)nc32)[C@H](O)[C@@H]1O)P(=O)(O)O` (mixture of isomers) [Example 227, rac-2-((2-(((2R,3S,4R,5R)-5-(6-chloro-4-(cyclopentylamino)-1H-pyrazolo[3,4-d]pyrimidin-1-yl)-3,4-dihydroxytetrahydrofuran-2-yl)methoxy)-3-hydroxy-2-phosphonopropoxy)methyl)benzoic acid] belongs ≤ 100 nM; to `C[C@@H]1CCC[C@@H]1Nc1nc(Cl)nc2c1cnn2[C@@H]1O[C@H](COC(CO)(CO)P(=O)(O)O)[C@@H](O)[C@H]1O` (racemic) [Example 228, rac-(2-(((2R,3S,4R,5R)-5-(6-chloro-4-(((1S,2R)-2-methylcyclopentyl)amino)-1H-pyrazolo[3,4-d]pyrimidin-1-yl)-3,4-dihydroxytetrahydrofuran-2-yl)methoxy)-1,3-dihydroxypropan-2-yl)phosphonic acid], ≤ 100 nM; to `O=P(O)(O)[C@@H](CO)OC[C@H]1O[C@@H](n2ncc3c(NC4CCCC4)nc(Cl)nc32)[C@H](O)[C@@H]1O` (single isomer, unassigned) [Example 3], ≤ 100 nM.
The value for `CCOC(=O)C(OC[C@H]1O[C@@H](n2ncc3c(NC4CCCC4)nc(Cl)nc32)[C@H](O)[C@@H]1O)P(=O)(O)O` (stereo partly drawn) [Example 1, (1-(((2R,3S,4R,5R)-5-(6-Chloro-4-(cyclopentylamino)-1H-pyrazolo[3,4-d]pyrimidin-1-yl)-3,4-dihydroxytetrahydrofuran-2-yl)methoxy)-2-ethoxy-2-oxoethyl)phosphonic acid] was ≤ 100 nM; that for `N#CC(OC[C@H]1O[C@@H](n2ncc3c(NC4CCCC4)nc(Cl)nc32)[C@H](O)[C@@H]1O)P(=O)(O)O` (stereo partly drawn) [Example 2, ((((2R,3S,4R,5R)-5-(6-Chloro-4-(cyclopentylamino)-1H-pyrazolo[3,4-d]pyrimidin-1-yl)-3,4-dihydroxytetrahydrofuran-2-yl)methoxy)(cyano)methyl)phosphonic acid] was 100 to 1000 nM.
To `CC(OC[C@H]1O[C@@H](n2ncc3c(NC4CCCC4)nc(Cl)nc32)[C@H](O)[C@@H]1O)P(=O)(O)O` (stereo partly drawn) [Example 5, (1-(((2R,3S,4R,5R)-5-(6-Chloro-4-(cyclopentylamino)-1H-pyrazolo[3,4-d]pyrimidin-1-yl)-3,4-dihydroxytetrahydrofuran-2-yl)methoxy)ethyl)phosphonic acid] belongs ≤ 100 nM; to `C[C@@H](P(=O)(O)O)S(=O)(=O)C[C@H]1O[C@@H](n2ncc3c(NC4CCCC4)nc(Cl)nc32)[C@H](O)[C@@H]1O` [Example 6, ((S)-1-((((2S,3S,4R,5R)-5-(6-Chloro-4-(cyclopentylamino)-1H-pyrazolo[3,4-d]pyrimidin-1-yl)-3,4-dihydroxytetrahydrofuran-2-yl)methyl)sulfonyl)ethyl)phosphonic acid], ≤ 100 nM; to `C[C@H](P(=O)(O)O)S(=O)(=O)C[C@H]1O[C@@H](n2ncc3c(NC4CCCC4)nc(Cl)nc32)[C@H](O)[C@@H]1O` [Example 7, ((R)-1-((((2S,3S,4R,5R)-5-(6-Chloro-4-(cyclopentylamino)-1H-pyrazolo[3,4-d]pyrimidin-1-yl)-3,4-dihydroxytetrahydrofuran-2-yl)methyl)sulfonyl)ethyl)phosphonic acid], ≤ 100 nM.
As to `CC(CO)(P(=O)(O)O)S(=O)(=O)C[C@H]1O[C@@H](n2ncc3c(NC4CCCC4)nc(Cl)nc32)[C@H](O)[C@@H]1O` (stereo partly drawn) [Example 8, (2-((((2S,3S,4R,5R)-5-(6-Chloro-4-(cyclopentylamino)-1H-pyrazolo[3,4-d]pyrimidin-1-yl)-3,4-dihydroxytetrahydrofuran-2-yl)methyl)sulfonyl)-1-hydroxypropan-2-yl)phosphonic acid], the half-inhibitory concentration (IC50) is ≤ 100 nM.
To `O=P(O)(O)[C@@H](Cc1ccccc1)S(=O)(=O)C[C@H]1O[C@@H](n2ncc3c(NC4CCCC4)nc(Cl)nc32)[C@H](O)[C@@H]1O` [Example 10, ((R)-1-((((2S,3S,4R,5R)-5-(6-chloro-4-(cyclopentylamino)-1H-pyrazolo[3,4-d]pyrimidin-1-yl)-3,4-dihydroxytetrahydrofuran-2-yl)methyl)sulfonyl)-2-phenylethyl)phosphonic acid] belongs ≤ 100 nM.
As for `C[C@H](O)[C@@H](OC[C@H]1O[C@@H](n2ncc3c(NC4CCCC4)nc(Cl)nc32)[C@H](O)[C@@H]1O)P(=O)(O)O` [Example 11, ((1S,2S)-1-(((2R,3S,4R,5R)-5-(6-chloro-4-(cyclopentylamino)-1H-pyrazolo[3,4-d]pyrimidin-1-yl)-3,4-dihydroxytetrahydrofuran-2-yl)methoxy)-2-hydroxypropyl)phosphonic acid], the IC50 is ≤ 100 nM.
As to `C[C@H](O)[C@H](OC[C@H]1O[C@@H](n2ncc3c(NC4CCCC4)nc(Cl)nc32)[C@H](O)[C@@H]1O)P(=O)(O)O` [Example 12, ((1R,2S)-1-(((2R,3S,4R,5R)-5-(6-chloro-4-(cyclopentylamino)-1H-pyrazolo[3,4-d]pyrimidin-1-yl)-3,4-dihydroxytetrahydrofuran-2-yl)methoxy)-2-hydroxypropyl)phosphonic acid], the 50% inhibitory concentration (IC50) was ≤ 100 nM.
`O=P(O)(O)C(CO)OC[C@H]1O[C@@H](n2ncc3c(NC4CCCC4)nc(Cl)nc32)[C@H](O)[C@@H]1O` (stereo partly drawn) [Example 13, (1-(((2R,3S,4R,5R)-5-(6-chloro-4-(cyclopentylamino)-1H-pyrazolo[3,4-d]pyrimidin-1-yl)-3,4-dihydroxytetrahydrofuran-2-yl)methxoy)-2-hydroxyethyl)phosphonic acid]: the half-inhibitory concentration (IC50) was ≤ 100 nM.
As to `CCC(OC[C@H]1O[C@@H](n2ncc3c(NC4CCCC4)nc(Cl)nc32)[C@H](O)[C@@H]1O)P(=O)(O)O` (stereo partly drawn) [Example 14, (1-(((2R,3S,4R,5R)-5-(6-chloro-4-(cyclopentylamino)-1H-pyrazolo[3,4-d]pyrimidin-1-yl)-3,4-dihydroxytetrahydrofuran-2-yl)methoxy)propyl)phosphonic acid], the half-maximal inhibitory concentration (IC50) was ≤ 100 nM.
As to `CC(CO)(OC[C@H]1O[C@@H](n2ncc3c(NC4CCCC4)nc(Cl)nc32)[C@H](O)[C@@H]1O)P(=O)(O)O` (stereo partly drawn) [Example 15, (2-(((2R,3S,4R,5R)-5-(6-Chloro-4-(cyclopentylamino)-1H-pyrazolo[3,4-d]pyrimidin-1-yl)-3,4-dihydroxytetrahydrofuran-2-yl)methoxy)-1-hydroxypropan-2-yl)phosphonic acid], the concentration for half-maximal inhibition (IC50) was ≤ 100 nM.
The value for `O=P(O)(O)CS(=O)(=O)C[C@H]1O[C@@H](n2nnc3c(NC4CCCC4)cc(Cl)nc32)[C@H](O)[C@@H]1O` [Example 16, (((((2S,3S,4R,5R)-5-(5-Chloro-7-(cyclopentylamino)-3H-[1,2,3]triazolo[4,5-b]pyridin-3-yl)-3,4-dihydroxytetrahydrofuran-2-yl)methyl)sulfonyl)methyl)phosphonic acid] was ≤ 100 nM; that for `O=P(O)(O)COC[C@H]1O[C@@H](n2nnc3c(NC4CCCC4)cc(Cl)nc32)[C@H](O)[C@@H]1O` [Example 17, ((((2R,3S,4R,5R)-5-(5-Chloro-7-(cyclopentylamino)-3H-[1,2,3]triazolo[4,5-b]pyridin-3-yl)-3,4-dihydroxytetrahydrofuran-2-yl)methoxy)methyl)phosphonic acid] was 100 to 1000 nM.
As to `O=P(O)(O)COC[C@H]1O[C@@H](n2nnc3c(NC4CCCC4)nc(Cl)cc32)[C@H](O)[C@@H]1O` [Example 20, ((((2R,3S,4R,5R)-5-(6-chloro-4-(cyclopentylamino)-1H-[1,2,3]triazolo[4,5-c]pyridin-1-yl)-3,4-dihydroxytetrahydrofuran-2-yl)methoxy)methyl)phosphonic acid], the half-maximal inhibitory concentration (IC50) was 100 to 1000 nM.
Consider `O=P(O)(O)COC[C@H]1O[C@@H](n2nnc3c(NCC4CC4)cc(Cl)nc32)[C@H](O)[C@@H]1O` [Example 21, ((((2R,3S,4R,5R)-5-(5-chloro-7-((cyclopropylmethyl)amino)-3H-[1,2,3]triazolo[4,5-b]pyridin-3-yl)-3,4-dihydroxytetrahydrofuran-2-yl)methoxy)methyl)phosphonic acid], for which the IC50 is ≤ 100 nM.

By IC50 is commonly meant the point on the concentration scale where inhibition reaches its midpoint. The low end stands for higher potency, the high end for lower potency.
